Results published in patent publication US9663533B2, “Thieno[3,2-C]pyridin-4(5H)-ones as BET inhibitors” (GlaxoSmithKline LLC, priority 2012, dated 2017).
Counter-ions that a name gives are not always drawn.

test system: Bromodomains BRD2, BRD3, BRD4 and BRDT, mutated proteins (BD1 or BD2); test: TR-FRET assay: affinity of the fluoroligand for mutated versus non-mutated binding domain; parameters: species or system Human; conditions: single residue mutations in the acetyl lysine binding pocket
Protocol: (§1) Binding was assessed using a time resolved fluorescent resonance energy transfer binding assay. This utilises a 6 His purification tag at the N-terminal of the proteins as an epitope for an anti-6 His antibody labeled with Europium chelate (PerkinElmer AD0111) allowing binding of the Europium to the proteins which acts as the donor fluorophore. A small molecule, high affinity binder of the bromodomains BRD2, BRD3, BRD4 and BRDT has been labeled with Alexa Fluor647 (Reference Compound X) and this acts as the acceptor in the FRET pair.
The binding of the compounds of formula (I) to Bromodomains BRD2, BRD3, BRD4 and BRDT was assessed using mutated proteins to detect differential binding to either Binding Domain 1 (BD1) or Binding Domain 2 (BD2) on the bromodomain. These single residue mutations in the acetyl lysine binding pocket greatly lower the affinity of the fluoroligand (Reference Compound X) for the mutated domain (>1000 fold selective for the non-mutated domain). Therefore in the final assay conditions, binding of the fluoroligand to the mutated domain cannot be detected and subsequently the assay is suitable to determine the binding of compounds to the single non-mutated bromodomain. […]

Row | SMILES | Selectivity of the fluoroligand for the non-mutated domain over the mutated domain [fold]
1 | COc1ccc2c(c1)C(c1ccc(Cl)cc1)=N[C@@H](CC(=O)NCCCCCNC(=O)CCCCCC1(C)/C(=C/C=C/C=C/C3=[N+](CCCCS(=O)(=O)O)c4ccc(S(=O)(=O)O)cc4C3(C)C)N(CCCCS(=O)(=O)[O-])c3ccc(S(=O)(=O)O)cc31)c1nnc(C)n1-2 (stereo partly drawn) [Reference Compound X] | > 1000

test system: Bromodomain BRD4, mutated proteins (BD1 or BD2); test: FP assay: affinity of the fluoroligand for mutated versus non-mutated binding domain; parameters: species or system Human; conditions: single residue mutations in the acetyl lysine binding pocket
Protocol: as §1, with “[…]” for “time resolved fluorescent resonance energy transfer”
The binding of the compounds of formula (I) to Bromodomain BRD4 was assessed using mutated proteins to detect differential binding to either Binding Domain 1 (BD1) or Binding Domain 2 (BD2) on the bromodomain. These single residue mutations in the acetyl lysine binding pocket greatly lower the affinity of the fluoroligand (Reference Compound X) for the mutated domain (>1000 fold selective for the non-mutated domain). Therefore in the final assay conditions, binding of the fluoroligand to the mutated domain cannot be detected and subsequently the assay is suitable to determine the binding of compounds to the single non-mutated bromodomain.
Protein Production: Recombinant Human Bromodomains [BRD4 (1-477) (Y97A) and (Y390A)] were expressed in E. coli cells (in pET15b vector) with a 6-His tag at the N-terminal. […]

Row | SMILES | Selectivity of the fluoroligand for the non-mutated domain over the mutated domain [fold]
2 | COc1ccc2c(c1)C(c1ccc(Cl)cc1)=N[C@@H](CC(=O)NCCCCCNC(=O)CCCCCC1(C)/C(=C/C=C/C=C/C3=[N+](CCCCS(=O)(=O)O)c4ccc(S(=O)(=O)O)cc4C3(C)C)N(CCCCS(=O)(=O)[O-])c3ccc(S(=O)(=O)O)cc31)c1nnc(C)n1-2 (stereo partly drawn) [Reference Compound X] | > 1000

test system: LPS induced IL-6 secretion from human whole blood; test: Quantification of LPS induced IL-6 secretion from human whole blood; format: cell-based; conditions: LPS 200 ng/mL, 24 hours, MSD ELISA, read-out: pIC50, LPS induced IL-6 secretion (converted)
Text: Quantification of LPS Induced IL-6 Secretion from Human Whole Blood
Activation of monocytic cells by agonists of toll-like receptors such as bacterial lipopolysaccharide (LPS) leads to the activation of intracellular signaling pathways resulting in the production of key pro-inflammatory mediators including IL-6. Such pathways are widely considered to be central to the pathophysiology of a range of auto-immune and inflammatory disorders.
The impact of bromodomain inhibitors on IL-6 release was assessed in an LPS-stimulated human whole blood assay. Briefly, serial dilutions of test compounds were prepared in DMSO and 1 μL of the diluted compounds or vehicle (DMSO) was added to each well in a 96-well cell culture plate. Fresh blood was collected in heparinized tubes by venipuncture from volunteers with consent, and 130 uL/well was added in the culture plate already containing the compounds. The plates were then incubated for 30 min at 37° C. and 5% CO2 before the addition of 10 μl of 2.8 μg/mL LPS diluted in 1% BSA (LPS from Salmonella typhosa; Sigma L 6386 at a final concentration of 200 ng/mL). After further incubation for 24 hours at 37° C. and 5% CO2, 140 μl of PBS were added to each well. The plates were then sealed, shaken for 10 minutes and then centrifuged for 10 minutes at 2000 rpm. 100 μl of the supernatant were removed and IL-6 levels quantified using an MSD ELISA (MesoScale Discovery technology). Concentration response curves for each compound were generated and an IC50 values were calculated.

Row | SMILES | IC50 [µM]
3 | CCCC[C@@H]1CN(Cc2cc3c(=O)n(C)cc(-c4ccc(OC)c(OC)c4)c3s2)CCN1 [Example 97, (R)-2-((3-butylpiperazin-1-yl)methyl)-7-(3,4-dimethoxyphenyl)-5-methylthieno[3,2-c]pyridin-4(5H)-one] | ≤ 10
4 | CN1CCCN(Cc2cc3c(=O)n(C)cc(-c4cccc(OCc5ccccc5)c4)c3s2)CC1 [Example 40, 7-(3-(benzyloxy)phenyl)-5-methyl-2-((4-methyl-1,4-diazepan-1-yl)methyl)thieno[3,2-c]pyridin-4(5H)-one, Hydrochloride] | ≤ 10
5 | CC(Oc1cncc(-c2cn(C)c(=O)c3cc(CN4CCN(S(C)(=O)=O)CC4)sc23)c1)c1ccccc1 (stereo not drawn) [Example 1, 5-methyl-2-((4-(methylsulphonyl)piperazin-1-yl)methyl)-7-(5-(1-phenylethoxy)pyridin-3-yl)thieno[3,2-c]pyridin-4(5H)-one hydrochloride] | ≤ 10
6 | CC(Oc1cncc(-c2cn(C)c(=O)c3cc(CN4CCN(S(C)(=O)=O)CC4)sc23)c1)c1ccccn1 (racemic) [Example 3, (±)-5-methyl-2-((4-(methylsulphonyl)piperazin-1-yl)methyl)-7-(5-(1-(pyridin-2-yl)ethoxy)pyridin-3-yl)thieno[3,2-c]pyridin-4(5H)-one] | ≤ 10
7 | C[C@@H]1CN(S(C)(=O)=O)CCN1Cc1cc2c(=O)n(C)cc(-c3ccncc3OCC3CC3)c2s1 [Example 168, (R)-7-(3-(cyclopropylmethoxy)pyridin-4-yl)-5-methyl-2-((2-methyl-4-(methylsulfonyl)piperazin-1-yl)methyl)thieno[3,2-c]pyridin-4(5H)-one] | ≤ 10
8 | Cn1cc(-c2ccnc(OCC3CCOCC3)c2)c2sc(CN3CCN(S(C)(=O)=O)CC3)cc2c1=O [Example 7, 5-methyl-2-((4-(methylsulphonyl)piperazin-1-yl)methyl)-7-(2-((tetrahydro-2H-pyran-4-yl)methoxy)pyridin-4-yl)thieno[3,2-c]pyridin-4(5H)-one] | ≤ 10
9 | CC(=O)Nc1cc(-c2cn(C)c(=O)c3cc(CN4CCN(S(C)(=O)=O)C[C@H]4C)sc23)ccn1 [Example 119, (R)-N-(4-(5-methyl-2-((2-methyl-4-(methylsulphonyl)piperazin-1-yl)methyl)-4-oxo-4,5-dihydrothieno[3,2-c]pyridin-7-yl)pyridin-2-yl)acetamide] | ≤ 10
